Measurements: PMC11600510 (Journal of Chemical Information and Modeling, 2024)

Target: T1, Spike RBD/ACE2 (19–615) interaction (Severe acute respiratory syndrome coronavirus 2, UniProt P0DTC2)
T1 construct: S protein RBD (aa residues 319–541) of SARS-CoV-2; expressed in transfected cells; host or cells: HEK293T
Assay: cell-based
Assay type: cell-based, SARS-CoV-2

[1] = HEK-293T, 48 h, read-out: suppression of Spike RBD/ACE2 (19–615) interaction

| Compound | activity on Spike RBD/ACE2 (19–615) interaction (in words) | concentration-dependent suppression of Spike RBD/ACE2 (19–615) interaction | effect on Spike RBD/ACE2 (19–615) interaction | further results |
| --- | --- | --- | --- | --- |
| c1ccc2cc(CCn3cnc4ccccc43)ccc2c1 [CKP-46, 1-(2-(Naphthalen-2-yl)ethyl)-1H-benzo[d]imidazole] | activity was retained | – | – | inhibition at 1 µM [1]: 20% |
| Oc1cccc2c1ncn2Cc1ccc2ccccc2c1 [CKP-26, 1-(Naphthalen-2-ylmethyl)-1H-benzo[d]imidazol-4-ol] | none of the 4-hydroxy congeners of 28 and 29, compounds 31 (CKP-26) and 32 (CKP-30) maintained inhibitory activity | – | – | – |
| Cc1ccc[n+](CC(=O)c2ccc3c(c2)Cc2ccccc2-3)c1C.[Br-] [compound 5315079, 1-[2-(9H-fluoren-2-yl)-2-oxoethyl]-2,3-dimethylpyridinium bromide] | – | suppressed Spike RBD/ACE2 (19–615) interaction in a concentration-dependent manner | suppressed the interaction | – |
| O=C(O)c1ccc2c(c1)C(=O)N(c1ccc(-c3nnc(-c4ccccc4)o3)cc1)C2=O [compound 5733393, 1,3-dioxo-2-[4-(5-phenyl-1,3,4-oxadiazol-2-yl)phenyl]-5-isoindolinecarboxylic acid] | – | – | suppressed the interaction | – |
| O=C(c1ccc(-c2ccccc2)cc1)n1cnc2ccccc21 [compound 5260662, 1-(4-biphenylylcarbonyl)-1H-benzimidazole] | – | suppressed Spike RBD/ACE2 (19–615) interaction in a concentration-dependent manner | suppressed the interaction | – |
| Nc1nc(-c2ccccc2)c(-c2ccc(-c3ccccc3)cc2)s1 [compound 6954709, 5-(4-biphenylyl)-4-phenyl-1,3-thiazol-2-amine] | – | – | suppressed the interaction | – |
| O=C(O)c1ccccc1C(=O)Nc1ccc(Oc2ccc3ccccc3c2)cc1 [compound 6052953, 2-({[4-(2-naphthyloxy)phenyl]amino}carbonyl)benzoic acid] | – | suppressed Spike RBD/ACE2 (19–615) interaction in a concentration-dependent manner | suppressed the interaction | – |
| O=C(c1ccc(NC(=O)C(c2ccccc2)c2ccccc2)cc1)c1ccc(C(=O)O)c(C(=O)O)c1 [compound 6048589, 4-{4-[(diphenylacetyl)amino]benzoyl}phthalic acid] | – | – | suppressed the interaction | – |
| O=C1CC(c2ccc3ccccc3c2)c2ccc3ccccc3c2N1 (centres unmarked) [compound 5979742, 4-(2-naphthyl)-3,4-dihydrobenzo[h]quinolin-2(1H)-one] | – | – | suppressed the interaction | – |
| O=[N+]([O-])c1cccc2c1ncn2Cc1ccc2ccccc2c1 [CKP-20, 1-(Naphthalen-2-ylmethyl)-4-nitro-1H-benzo[d]imidazole] | showed activity | – | – | inhibition at 50 µM [1]: 51% |
| COc1ccc(-c2ccccc2)cc1NCc1ccc2c(c1)OCO2 [compound 5465521, (1,3-benzodioxol-5-ylmethyl)(4-methoxy-3-biphenylyl)amine] | – | suppressed Spike RBD/ACE2 (19–615) interaction in a concentration-dependent manner | suppressed the interaction | – |
| O=C(C=Cc1ccc(NC(=O)c2ccccc2-c2ccccc2C(=O)O)cc1)c1ccccc1 [compound 5755483, 2'-({[4-(3-oxo-3-phenyl-1-propen-1-yl)phenyl]amino}carbonyl)-2-biphenylcarboxylic acid] | – | – | suppressed the interaction | – |
| O=[N+]([O-])c1cccc2c1ncn2Cc1ccc2cccnc2c1 [CKP-48, 7-((4-Nitro-1H-benzo[d]imidazol-1-yl)methyl)quinoline] | showed activity | – | – | inhibition at 50 µM [1]: 36% |
